Structures can show the parent of a compound that is named as a salt.

One data set deals with SF-nanobacteria. Description: Chemical disinfection of SF-nanobacteria. Details: Resistance of SF-nanobacteria to chemical disinfectants (survival), exposure time 10 min: key to the marks not given beside the values. Type of data set: cell-based. Conditions: for Resistance of SF-nanobacteria to chemical disinfectants (survival), exposure time 10 min: 10 min exposure at room temperature; for Resistance of SF-nanobacteria to chemical disinfectants (survival), exposure time 10 min / Resistance of SF-nanobacteria to chemical disinfectants (survival), exposure time 30 min: survival after subculture compared to diluent only; for Resistance of SF-nanobacteria to chemical disinfectants (survival), exposure time 30 min: 30 min exposure at room temperature; for Effect of chemical treatment on SF-nanobacteria (in words): room temperature exposure. The source says:
The cultures were exposed to the disinfectants after removal of the culture medium. For the autoclaving, UV, microwave, and drying treatments, the medium was removed and an equal amount of PBS used instead. For the heat treatments, the SF-nanobacteria were harvested by scraping the culture vessel followed by centrifugation of the medium. The obtained pellet was suspended in PBS and used in the test. After treatments the SF-nanobacteria were subcultured in DMEM medium and the growth followed by light microscopy to see the adherence and typical mineralization.
The concentrations of the chemicals used were those commonly used for disinfection or as instructed by the manufacturer. The chemicals included 70% ethanol, 2% glutaraldehyde, 4% formaldehyde, 0.5% hypochlorite, 3% hydrogen peroxide, 1M hydrochloric acid (HCl), 1M sodium hydroxide (NaOH), 1% sodium dodecyl sulfate (SDS), 1% Tween 80, 1% Triton X-100, 3M guanidium-hydrochloride, 3M urea, 1% Virkon® (Antec International Ltd., Suffolk, England; 100% product contains 50% potassium persulfate, 5% sulfaminoic acid), 1.5% Erifenol® (Orion OY, Finland; 100% product contains <5% NaOH, <5% o-benzyl-p-chlorophenol, 5-15% p-chloro-m-cresol), 1% Klorilli® (Orion OY, Finland; 100% product contains sodium metasilicate, sodium N-chloro-p-toluenesulfonamide-3-hydrate and 20,000 ppm active chlorine), and 3% Buraton® (Schulke & Mayr, Germany; 100% product contains 4.5% formaldehyde, 6.8% glyoxal, 1.5% glyoxylic acid, 6% dimethylaurylbenzyl-ammonium chloride). The dilutions to be used were freshly prepared on the day of exposure in sterile distilled water. As a positive control, only diluent was used. Negative control contained only culture medium.
The SF-nanobacteria were exposed to the chemicals for 10 and 30 minutes at room temperature after removal of the culture medium. After exposure, the disinfectant solution was removed and fresh medium added (with a neutralization step in the case of HCl and NaOH). If any significant deattachment occurred, nanobacteria were recovered by centrifugation, and subcultured.

Data set [1] relates to nanobacteria. In words: Antibiotic susceptibility of nanobacteria, Minimal Inhibition Concentration (MIC) in 96-well plates. Type of data set: cell-based. On the procedure:
Antibiotic sensitivity tests were carried out by measuring Minimal Inhibition Concentration (MIC), a common practice in clinical microbiology.
The tests were performed in 96-well plates. DMEM (commercial cell culture medium) containing 10% gamma-irradiated fetal bovine serum (FBS)(dose about 3 Mrads; this treatment inactivates nanobacteria in the serum so that the basic medium is sterile) was used as the basic culture medium. These components are commercially available, e.g., from Gibco. The antibiotic stock solutions were sterile filtered through 0.2 micrometer filters. The stock solutions were then serially diluted (into the basal culture medium) to provide a final starting concentration of 0.5 mg/ml and 1:2 dilutions therefrom, unless otherwise specified. For each antibiotic three parallel tests were performed using all the antibiotic dilutions and, additionally, positive and negative control experiments. […] 100 μl of dilutions of the nanobacteria inoculum were added to all wells except the negative controls. The plates were incubated at mammalian cell culture conditions (37° Celsius, 5% carbon dioxide, 95% humid air). The absorbance values at 650 nm were recorded by using an ELISA reader at the start, and at 4, 8, 12, 14 days. […] Calculations were based on absorbance curves where absorbance was plotted against concentration of the antibiotic.

For data set [2], the system named is nanobacterial stone formation on human teeth. The following applies: fluoride concentrations typically present in toothpastes.
A further data set relates to nanobacterial biofilm. Description: Nanobacterial biofilm formation on commercial stents in vitro. In kind it is cell-based, nanobacteria. Conditions: salts added to the culture medium; two commercial plastic-type stents. The source says: (§1) Nanobacteria also absorb some heavy metals. Nanobacteria can be stained well with silver or copper compounds. […] Silver and copper parts or platings on surfaces, such as catheters or stents, can provide an antinanobacterial effect by preventing nanobacterial biofilm formation. In in vitro tests nanobacteria avidly formed biofilm on two different commercial stents made of a plastic type of material. This biofilm formation was prevented by the addition of silver or copper salts to the culture medium.

Data set [3] deals with nanobacteria. Description: Nanobacterial growth in culture media with metal ions. Type of data set: cell-based. The following applies: added to culture media at submillimolar levels.
Source text: as §1

For data set [4], the system named is nanobacteria. Description: Treatment of human patients infected with nanobacteria. Conditions: person, chronic fatigue syndrome. Type of data set: in vivo.
For data set [5], the system named is calculus formation on teeth. Conditions: laboratory animals; cited from earlier work.

For `OCl` [0.5% hypochlorite, hypochlorite], in the data set on SF-nanobacteria, the “Resistance of SF-nanobacteria to chemical disinfectants (survival), exposure time 10 min” value (“Resistance … exposure time 10 min” below) is listed as “+++” and the “Resistance of SF-nanobacteria to chemical disinfectants (survival), exposure time 30 min” value (shortened to “Resistance … exposure time 30 min”) is “+++”.

In the case of `CCCCCCCCCCCCOS(=O)(=O)[O-].[Na+]` [1% SDS, sodium dodecyl sulfate], in the data set with SF-nanobacteria, the “Resistance … exposure time 10 min” value is recorded as “+++” and the “Resistance … exposure time 30 min” value is on record as “+++”.

Take `CCCCCCCC/C=C\CCCCCCCC(=O)OCCOCC(OCCO)C1OCC(OCCO)C1OCCO` (stereo not shown) [1% Tween 80, Tween 80]: in the data set with SF-nanobacteria, the “Resistance … exposure time 10 min” value is “+++” and the “Resistance … exposure time 30 min” value is on record as “+++”.

For `Cl` [1M HCl, hydrochloric acid], in the data set on SF-nanobacteria, the “Resistance … exposure time 30 min” value is given as “++” and the “Effect of chemical treatment on SF-nanobacteria (in words)” value was “dissolved the apatite layer of nanobacteria, but remineralization was observed after addition of culture medium”.

For the compound `[Na+].[OH-]` [1M NaOH, sodium hydroxide], in the data set with SF-nanobacteria, the “Resistance … exposure time 10 min” value is given as “+++” and the “Resistance … exposure time 30 min” value is recorded as “+++”.

With `O=CCCCC=O` [2% glutaraldehyde, glutaraldehyde], in the data set with SF-nanobacteria, the “Resistance … exposure time 10 min” value was “+++” and the “Resistance … exposure time 30 min” value is recorded as “+++”.

Regarding `OO` [3% H2O2, hydrogen peroxide], in the data set on SF-nanobacteria, the “Resistance … exposure time 10 min” value is given as “+++” and the “Resistance … exposure time 30 min” value was “+++”.

As for `N=C(N)N` [3M Guanidium HCl, guanidium-hydrochloride], in the data set on SF-nanobacteria, the “Resistance … exposure time 30 min” value was 0 and the “Effect of chemical treatment on SF-nanobacteria (in words)” value was “resulted in the deattachment of the SF-nanobacteria”.

As to `NC(N)=O` [3M Urea, urea], in the data set on SF-nanobacteria, the “Resistance … exposure time 10 min” value is given as “+++” and the “Resistance … exposure time 30 min” value is reported as “+++”.

In the case of `C=O` [4% formaldehyde, formaldehyde], in the data set on SF-nanobacteria, the “Resistance … exposure time 10 min” value is listed as “+++” and the “Resistance … exposure time 30 min” value was “+++”.

Take `CCO` [70% ethanol, ethanol]: in the data set with SF-nanobacteria, the “Resistance … exposure time 10 min” value was “+++” and the “Resistance … exposure time 30 min” value is “+++”.

As to `CC(=O)Oc1ccccc1C(=O)O` [Acetylsalicylic acid], in the data set with nanobacteria [1], the “Kind of antinanobacterial effect in the in vitro test (in words)” value (“Kind of antinanobacterial effect” for short) is “weak”.

Consider `CC1(C)S[C@@H]2[C@H](NC(=O)[C@H](N)c3ccccc3)C(=O)N2[C@H]1C(=O)O` [Ampicillin], for which the “Kind of antinanobacterial effect” value in the data set on nanobacteria [1] is recorded as “weak bacteriostatic effect”.

`O=P(O)(O)C(Cl)(Cl)P(=O)(O)O` [Chlodronate]: the “Kind of antinanobacterial effect” value in the data set with nanobacteria [1] is reported as “bacteriocidic effect”.

On to `O=C(O)CC(O)(CC(=O)O)C(=O)O` [Citrate], for which, in the data set with nanobacteria [1], the “Kind of antinanobacterial effect” value was “effective antinanobacterial agent”.

In the case of `C[C@H]1c2cccc(O)c2C(=O)C2=C(O)[C@]3(O)C(=O)C(C(N)=O)=C(O)[C@@H](N(C)C)[C@@H]3[C@@H](O)[C@@H]21` [Doxycyclin, Doxycycline], in the data set with nanobacteria [1], the “Kind of antinanobacterial effect” value is “effective on inhibiting nanobacterial growth”. Besides, in the data set on nanobacteria [1] (8 day results), the “MIC values calculated from the 8 day results” value is reported as “around 1 mg per liter”. The “Stability under the test conditions” value in the data set on nanobacteria [1] (MIC test culture conditions) is given as “not stable under the test conditions”.

As for `O=C(O)CN(CCN(CC(=O)O)CC(=O)O)CC(=O)O` [EDTA, ethylenediaminetetraacetic acid], the “Kind of antinanobacterial effect” value in the data set with nanobacteria [1] is on record as “antinanobacterial effects”.

For the compound `O=C(O)CN(CCOCCOCCN(CC(=O)O)CC(=O)O)CC(=O)O` [EGTA], the “Kind of antinanobacterial effect” value with nanobacteria [1] is reported as “antinanobacterial effects”.

With `CC(O)(P(=O)(O)O)P(=O)(O)O` [Ethidronate], the “Kind of antinanobacterial effect” value in the data set with nanobacteria [1] is reported as “bacteriocidic effect”.

Consider `F` [Fluoride], for which, in data set [2], the “Nanobacterial stone formation on human teeth” value was “inhibit nanobacterial stone formation”.

In the case of `[H]/N=C(/N)N[C@H]1[C@H](O)[C@@H](O)[C@H](O[C@@H]2O[C@@H](C)[C@](O)(C=O)[C@H]2O[C@@H]2O[C@@H](CO)[C@H](O)[C@@H](O)[C@@H]2NC)[C@@H](N/C(N)=N\[H])[C@@H]1O` [Streptomycin], the “Kind of antinanobacterial effect” value with nanobacteria [1] was “bacteriostatic effects at high antibiotic concentrations”.

With `COc1cc(Cc2cnc(N)nc2N)cc(OC)c1OC` [Trimethoprim], the “Kind of antinanobacterial effect” value in the data set with nanobacteria [1] is listed as “highly effective but was only bacteriostatic”.

For the compound `CN[C@H](CC(C)C)C(=O)N[C@H]1C(=O)N[C@@H](CC(N)=O)C(=O)N[C@H]2C(=O)N[C@H]3C(=O)N[C@H](C(=O)N[C@H](C(=O)O)c4cc(O)cc(O)c4-c4cc3ccc4O)[C@H](O)c3ccc(c(Cl)c3)Oc3cc2cc(c3O[C@@H]2O[C@H](CO)[C@@H](O)[C@H](O)[C@H]2O[C@H]2C[C@](C)(N)[C@H](O)[C@H](C)O2)Oc2ccc(cc2Cl)[C@H]1O` [Vancomycin], the “Kind of antinanobacterial effect” value in the data set with nanobacteria [1] was “effective bacteriostat against nanobacteria at relatively high concentrations”.

As for `CC1=CC(=O)c2ccccc2C1=O` [Vitamin K (Menadion), Menadion], the “Kind of antinanobacterial effect” value in the data set with nanobacteria [1] is reported as “toxic to nanobacteria at concentrations that are not harmful to mammalian cells”.

As to `[Cu]` [copper], the “Biofilm formation on stents” value in the data set on nanobacterial biofilm is “prevented”. Further, in the data set with nanobacteria [3], the Nanobacterial growth entry is given as “prevented nanobacterial growth”.

Regarding `Nc1ccc(C(=O)O)c(O)c1` [para-aminosalicylic acid], the “MIC value (in words)” value in the data set on nanobacteria [1] (compared with acetylsalicylic acid) is recorded as “identical with acetylsalicylic acid”.

Turning to `CN(C)[C@@H]1C(O)=C(C(N)=O)C(=O)[C@@]2(O)C(O)=C3C(=O)c4c(O)cccc4[C@@](C)(O)[C@H]3C[C@@H]12` [tetracycline HCl], the “Nanobacteria status of patient samples” value in the data set with nanobacteria [4] (500 mg 4 times per day for one month, then 500 mg twice a day for 5 months, urine and serum samples) is “nanobacteria negative after one month therapy”. Also, the “Patient's condition” value with nanobacteria [4] (after one month therapy) is “improved”.

In the case of Neomycin, the “Kind of antinanobacterial effect” value in the data set on nanobacteria [1] is reported as “bacteriostatic effects at high antibiotic concentrations”.

For Penicillin, the Calculus formation entry in data set [5] is listed as “do not”.

Take Triton X-100 [1% Triton X-100]: in the data set on SF-nanobacteria, the “Resistance … exposure time 10 min” value was “+++” and the “Resistance … exposure time 30 min” value is given as “+++”.

Take Vitamin D: the “Kind of antinanobacterial effect” value with nanobacteria [1] is “very weak inhibitory effect”.

Consider silver, for which the “Biofilm formation on stents” value in the data set on nanobacterial biofilm is “prevented”. In the data set with nanobacteria [3], the Nanobacterial growth entry was “prevented nanobacterial growth”.

The record behind these values is US20050036904A1, “Methods for eradication of nanobacteria” (priority 1998, published 2005).
